Columns and labels:
[1] = Apparent permeability from apical to basolateral side of MDCK cells expressing MDR1; assay type: ADME, cell-based, Canis lupus familiaris; conditions: dog
[2] = Oral bioavailability in Sprague-Dawley rat at 2 umol/kg; assay type: ADME, organism-based; conditions: in vivo
Rattus norvegicus = assay: Clearance in Sprague-Dawley rat plasma at 2 umol/kg, iv; assay type: ADME, organism-based; conditions: in vivo
[3] = Half life in Sprague-Dawley rat at 2 umol/kg, iv; assay type: ADME, organism-based; conditions: in vivo
[4] = Intrinsic clearance in human liver microsomes; assay type: ADME, Microsome
[5] = Volume of distribution at steady state in Sprague-Dawley rat at 2 umol/kg, iv; assay type: ADME, organism-based; conditions: in vivo, read-out: Vdss
[6] = Intrinsic clearance in rat liver microsomes; assay type: ADME, Microsome
[7] = Ratio of drug level brain to plasma in Sprague-Dawley rat at 2 umol/kg, iv; assay type: ADME; conditions: brain and plasma, read-out: BPR
[8] = Ratio of drug level brain to plasma in Sprague-Dawley rat at 5 umol/kg, iv; assay type: ADME; conditions: brain and plasma, read-out: BPR

SMILES | Papp A→B [1] [×10⁻⁶ cm/s] | bioavailability [2] [%] | CL (Rattus norvegicus) [µL/min/mg] | half-life [3] [h] | microsomal CLint [4] [µL/min/mg] | Vd [5] [L/kg] | microsomal CLint [6] [µL/min/mg] | Kp [7] | Kp [8]
NC(=O)c1cccc(C[C@H]2C[C@H]3CC[C@@H](C2)N3Cc2ccccc2)c1 | 14 | 5 | 124 | 1.3 | < 4 | 6.6 | 65 | 1.9 | 
CN(C)C(=O)N[C@H]1CC[C@@H](CCN2[C@@H]3CC[C@H]2C[C@@H](Oc2cccc(C(N)=O)c2)C3)CC1 | 1.9 |  |  |  | < 4 |  | 30 |  | 0.22

Source: ChEMBL document CHEMBL1221377, “SAR development of a series of 8-azabicyclo[3.2.1]octan-3-yloxy-benzamides as kappa opioid receptor antagonists. Part 2” (Bioorg Med Chem Lett, 2010)
